In patent US11884627B2, “Compounds and compositions for treating conditions associated with LPA receptor activity” (Lhotse Bio, Inc., priority 2022, dated 2024):

Assays:
human LPA1 [1] = molecular target: T1, human LPA1 (Homo sapiens, UniProt Q92633); assay: In vitro LPA1 functional antagonist assay (calcium mobilization, FLIPR); type: cell-based; conditions: Table B2; CHO-K1 cells overexpressing human LPA1, Oleoyl LPA challenge at EC80; read-out: IC50
T1 construct: expressed in transfected cells; host or cells: CHO-K1
Procedure: In Vitro LPA1 Functional Antagonist Assay
CHO-K1 cells overexpressing human LPA1 were seeded in a total volume of 20 μL into black-walled, clear-bottom. Poly-D-lysine coated 384-well microplates and incubated at 37° C., for the appropriate time prior to testing. Assays were performed in 1× Dye Loading Buffer consisting of 1× Dye, 1× Additive A and 2.5 mM Probenecid in HBSS/20 mM Hepes. Probenicid was prepared fresh. Cells were loaded with dye prior to testing. Media was aspirated from cells and replaced with 20 μL Dye Loading Buffer. Cells were incubated for 30-60 minutes at 37° C. After dye loading, cells were removed from the incubator and 10 μL 3× test compound was added. Cells were incubated for 30 minutes at room temperature in the dark to equilibrate plate temperature followed by Oleoyl LPA challenge at EC80. Compound antagonist activity was measured on a FLIPR Tetra (MSD). Calcium mobilization was monitored for 2 minutes and 10 μL Oleoyl LPA in HBSS/20 mM Hepes was added to the cells 5 seconds into the assay. For LPA EC80 determination, after dye loading, cells were removed from the incubator and 10 μL HBSS/20 mM Hepes was added. 3× vehicle was included in the buffer. Cells were incubated for 30 minutes at room temperature in the dark to equilibrate plate temperature. Intermediate dilution of LPA stocks was performed to generate 4×LPA samples in assay buffer. LPA agonist activity was measured on a FLIPR Tetra (MSD). Calcium mobilization was monitored for 2 minutes and 10 μL 4×LPA sample in HBSS/20 mM Hepes was added to the cells 5 seconds into the assay. Compound activity was analyzed using CBIS data analysis suite (ChemInnovation, CA). Percentage inhibition is calculated using the following formula: % Inhibition=100%×(1−(mean RFU of test sample−mean RFU of vehicle control)/(mean RFU of LPA control−mean RFU of vehicle control)).
Table B1 and Table B2 show the biological activity of compounds in in vitro LPA1 functional antagonist assay. Activity of the tested compounds provided in Table B1 is as follows: +++=IC50<1 μM; ++=IC50 1 μM−10 μM; +=IC50>10 μM.

human LPA1 [2] = molecular target: T1, human LPA1; assay: In vitro LPA1 calcium flux antagonist assay - Bioduro protocol; type: cell-based; conditions: CHO-K1 cells overexpressing human LPA1 and G15a, LPA challenge at EC80
In short: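 Calcium mobilization read on FLIPR after EC80 LPA was added to compound-pretreated (30 min) CHO-K1 cells co-expressing human LPA1 and G15a. Cells were starved 4 h and dye-loaded with Fluo-8 AM/2.5 mM probenecid in HBSS-Hepes; inhibition normalized between DMSO and LPA-control RFU.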

[3] = calcium mobilization on FLIPR Tetra, read-out: IC50
[4] = Table B3, read-out: Activity (IC50 class)

T1 sequence (Q92633 whole entry): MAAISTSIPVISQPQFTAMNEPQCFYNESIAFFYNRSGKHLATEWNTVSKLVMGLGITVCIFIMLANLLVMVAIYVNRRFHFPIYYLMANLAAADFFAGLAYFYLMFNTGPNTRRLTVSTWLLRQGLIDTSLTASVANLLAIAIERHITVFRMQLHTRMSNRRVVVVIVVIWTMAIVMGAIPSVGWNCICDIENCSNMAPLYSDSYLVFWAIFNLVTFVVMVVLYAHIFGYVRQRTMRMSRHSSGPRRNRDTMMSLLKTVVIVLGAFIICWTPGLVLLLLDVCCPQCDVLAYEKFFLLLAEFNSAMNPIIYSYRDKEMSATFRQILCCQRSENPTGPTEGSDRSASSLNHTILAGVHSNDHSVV

Row | IC50 (human LPA1 [1]) [nM] | IC50 (human LPA1 [2]; [3]) [nM] | IC50 (human LPA1 [2]; [4]) [nM] | Structure (SMILES)
1 | 7.94 | 3.31 | < 100 | CCOc1cccc(-c2ccc(NC3(C(=O)O)CCOCC3)cc2COC2CC2)c1Cl [Compound 295, 4-((2′-chloro-2-(cyclopropoxymethyl)-3′-ethoxy-[1,1′-biphenyl]-4-yl)amino)tetrahydro-2H-pyran-4-carboxylic acid]
2 | 2.64 | 0.763 | < 100 | CCOc1cc(OC)cc(-c2ccc(NC3(C(=O)O)CCOCC3)cc2CCC2CC2)c1F [Compound 298]
3 | 7.53 | 3.02 | < 100 | CCOc1cccc(-c2ccc(NC3(C(=O)O)CCOCC3)cc2COC2CC2)c1C [Compound 355, 4-((2-(cyclopropoxymethyl)-3′-ethoxy-2′-methyl-[1,1′-biphenyl]-4-yl)amino)tetrahydro-2H-pyran-4-carboxylic acid]
